Results reported in patent US9522151B2, “Dosing regimen for Janus Kinase (JAK) inhibitors” (priority 2012, dated 2016).
Values joined by “and” are separate entries in the source; they are usually repeats but may differ in a detail not shown here. Equal values may be shown once. Read-outs that look alike come from different tables or passages of the source.

Assays:
[1] = tested on: client owned dogs with a history of chronic atopic dermatitis; assay: Study in client owned dogs with chronic atopic dermatitis (Table 1); format: in vivo, dog; conditions: 0.19-0.39 mg/kg BID oral for 28 days; Day 1, 14 and 28
Method: A study was conducted in client owned dogs. Fifty-six dogs, greater than 1 year of age, weighing 2-50 kg, with a history of chronic atopic dermatitis were enrolled at three veterinary schools. The study design is illustrated in the following Table 1: […]

[2] = tested on: dogs with moderate to severe itching (pruritus); assay: Pruritus Study A (placebo controlled); format: in vivo, dog
Description: (§1) Investigators attributed pruritus to one or more of the following: allergic dermatitis, atopic dermatitis, food allergy, contact allergy, flea allergy, sarcoptic mange. Dogs were six months of age or older, weighed a minimum of 3 kg and were physically healthy apart from their pruritic condition. Dogs were flea-free, and appropriate preventatives and treatments were used throughout the studies. The studies were designed as follows in Table 2 and Table 3.

[3] = tested on: dogs with moderate to severe itching (pruritus); assay: Pruritus Study B (prednisolone controlled); format: in vivo, dog; conditions: day 14; oral BID for 14 days (prednisolone 0.25-0.5 mg/kg, compound 1 0.4-0.6 mg/kg); time zero about 75 mm
Description: as §1

[4] = tested on: client-owned dogs with chronic non-seasonal atopic dermatitis; format: in vivo; conditions: 0.4-0.6 mg/kg BID oral
Description: (§2) Minimum CADESI scores were assigned by a dermatologist or veterinarian (CADESI-01 score of 25 or CADESI-3 score of 60). Dogs were either 1 year of age or 6 months of age or older and weighed a minimum of 3 kg and were physically healthy apart from their atopic disease. The dogs had at least a 1 year or 6 month documented history of chronic non-seasonal atopic dermatitis. The dogs were flea free and appropriate preventatives and treatments were used throughout the study.
In these studies, animals were administered from 0.4-0.6 mg/kg body weight of a JAK inhibitor BID for up to 112 days.

laboratory dogs = assay: High dose BID safety study in 6 month old laboratory dogs; format: in vivo, dog
Method: A high dose (3 mg/kg BID) was given to 6 month old laboratory dogs.

[5] = tested on: dogs with chronic non-seasonal atopic dermatitis; assay: Atopic Dermatitis Dose Selection Study; format: in vivo, dog; conditions: oral
Description: as §2

laboratory-bred dogs = tested on: laboratory-bred dogs
Method: A target animal safety program (8 studies) was conducted. 131 laboratory-bred dogs were exposed to N-methyl-1-{trans-4-[methyl(7H-pyrrolo[2,3-d]pyrimidin-4-yl)amino]cyclohexyl}methanesulfonamide maleate (i.e. N-methyl-1-{trans-4-[methyl(7H-pyrrolo[2,3-d]pyrimidin-4-yl)amino]cyclohexyl}methanesulfonamide maleic acid salt maleic acid salt). Doses ranged from 0.5 mg/kg/day (0.25 mg/kg BID) to 18 mg/kg/day (9 mg/kg BID). Duration of exposure ranged from 10 days to 6 months. Recovery periods were incorporated into two studies. A series of early studies were designed to ensure the safety of client-owned dogs in the field safety and efficacy studies.
In a “margin of safety” study, the following treatments were given: […]

[6] = dog, in vivo
Method: All doses are expressed in terms of mg/kg of free base. Serial blood samples for determination of pharmacokinetics were collected following Compound 1 administration. Blood samples at 0, 1, 4, 8, and 12 hours post dose were collected via jugular venipuncture into K2EDTA tubes and placed on ice until centrifuged. Harvested plasma was stored at approximately −20° C. until analysis.
Thirty-two beagle dogs (16 female, 16 male) were allocated to four treatment groups. Dogs in Treatment 1 received placebo capsule (0 mg/kg) orally. […] All dogs received a twice daily doses 0, 0.6, 1.8, and 3.0 mg/kg for weeks 1 through 6 and a single daily doses of 0, 0.6, 1.8, and 3.0 mg/kg for weeks 7 through 26. On pharmacokinetic sample collection days, dogs were fasted the previous night and fed four hours post dose administration. To calculate AUC0-24 for study days 53 and 168, steady-state was assumed and the 24 hour concentration was assumed to be equal to the 0 hour concentration, and used for the 0 hour concentration. As the actual doses of Compound 1 varied from the group target doses, the pharmacokinetic variables AUC0-τ, (AUC of the dosing interval), Cmax, and Cτ (trough concentration) were all normalized to the group target dose.

in vitro = conditions: human, Caco-2
Description: The in vitro permeability of Compound 1 was experimentally determined in a Caco-2 cell monolayer study. […] The dog gastric pH has been reported to range from 1.08 to 2.0 (Sagawa, Li et al. 2009; Mahar, Portelli et al. 2012).

[7] = tested on: cytokine receptors that share the common gamma chain (e.g. IL-2R, IL-4R); assay: Inhibition of cytokine function, common gamma chain receptors; format: cell-based; conditions: read-out: IC50's of representative family members
[8] = tested on: JAK-1 dependent cytokines (e.g. IL-2, IL-4, IL-6, IL-13, and IL-31); assay: Inhibition of JAK-1 dependent cytokines; format: cell-based
[9] = tested on: cytokines that are exclusively dependent on JAK2 function (EPO, GM-CSF); assay: Inhibition of cytokines exclusively dependent on JAK2; format: cell-based; conditions: ratio of IC50's
IL-12 and IL-23 = assay: Inhibition of cytokines that utilize JAK2/TYK2 and not JAK1; format: cell-based
[10] = tested on: cytokine receptors that share the gp130 subunit (e.g. IL-6) as well as IL-13; assay: Inhibition of gp130 subunit cytokine receptors and IL-13; format: cell-based
[11] = tested on: the IL-10 family, the IL-12 family (that share the p40 subunit), or the IL-3 family; assay: Inhibition of IL-10, IL-12 and IL-3 family cytokines; format: cell-based
[12] = dog, in vivo; remark: listed apart in the source
[13] = pH 5.5
physchem = conditions: pH 3.8
[14] = Other pharmacokinetic studies in dogs (IV and PO); conditions: for bioavailability: po

CNS(=O)(=O)C[C@H]1CC[C@H](N(C)c2ncnc3[nH]ccc23)CC1.O=C(O)/C=C\C(=O)O [Compound 1, N-methyl-1-{trans-4-[methyl(7H-pyrrolo[2,3-d]pyrimidin-4-yl)amino]cyclohexyl}methanesulfonamide maleate]
reduction in owner assessed VAS pruritus scores compared with placebo [1]: significantly (p≦0.07) different
owner VAS scores by day compared to placebo (T01) ([2]; 0.4-0.6 mg/kg BID oral for 7 days): lower each day starting on day 1
LS mean owner VAS score ([2]; day 7, 0.4-0.6 mg/kg BID oral, time zero about 75 mm, placebo about 55 mm): about 25 mm
LS mean owner VAS score [3]: about 18 mm
efficacy for the control of atopic dermatitis including pruritus [4]: excellent efficacy
effects observed (laboratory dogs; 0.6 mg/kg BID group): few effects
dogs with clinical signs of integument (demodex) (laboratory dogs; 3 mg/kg BID, 6 month old laboratory dogs): 7/8
Investigator CADESI score over 112 days, order of treatment groups from highest to lowest [5]: T01 (placebo), T04 (0.2-0.3 mg/kg SID compound 1), T03 (0.4-0.6 mg/kg SID compound 1), and T02 (0.4-0.6 mg/kg BID for 14 days followed by 0.4-0.6 mg/kg SID thereafter)
significant decreases in red blood cell parameters outside normal laboratory reference ranges (laboratory-bred dogs; 0.6 mg/kg dose): not detected
deaths or other serious adverse events (laboratory-bred dogs; 0.6, 1.8 or 3.0 mg/kg oral, BID weeks 1-6 then SID weeks 7-26): no observed deaths or other serious adverse events
increase in mean AUC0-12 from Day 0 to Day 21 ([6]; both, beagle, po): 40%
male/female differences in pharmacokinetic parameters [6]: there did not appear to be any systematic male/female differences
increase in AUC0-12 and Cmax with dose ([6]; po, 3 mg/kg): dose proportional from 0.6 to 3.0 mg/kg
Papp (in vitro): 404 nm/s
IC50 [7]: 63 nM to 249 nM and 0.021 µg/mL to 0.084 µg/mL
IC50 [8]: < 249 nM and < 0.084 µg/mL
fold less potent than the JAK1-dependent cytokines (IL-2, 4, 6, 13, and 31) [9]: 4-17 fold
IC50 (IL-12 and IL-23): > 3 µM
inhibition of cytokine receptor function [10]: inhibits the function
inhibition of cytokines [11]: it does not appear that compound 1 inhibits
impact of breed on pharmacokinetic profile [12]: breed does not impact the pharmacokinetic profile
solubility [13]: practically insoluble
solubility (physchem): 10.4 mg/mL
calculated fraction absorbed ([14]; based on bioavailability 85%, clearance 4 mL/min/kg, blood flow 40 mL/min/kg): greater than 0.9
half-life ([14]; dog, plasma): 4 h
clearance ([14]; dog, plasma, intravenous): 0.24 L/h/kg
bioavailability ([14]; dog, plasma, absolute oral bioavailability, mean range, dogs): 79 to 89%
bioavailability ([14]; dog, plasma, bioavailability, value used to calculate fraction absorbed): 85%
volume of distribution ([14]; dogs): moderate volume of distribution
time of mean maximum plasma concentrations post dose ([14]; oral administration, dogs): approximately 1 hour

C[C@]12C=CC(=O)C=C1CC[C@@H]1[C@@H]2[C@@H](O)C[C@@]2(C)[C@H]1CC[C@]2(O)C(=O)CO [prednisolone, Prednisolone, reference compound]
LS mean owner VAS score [3]: about 10 mm
